We go through one compound from patent publication US9808426B2, “Ternary mixture formulations” (priority 2011, dated 2017).

Structures are written as SMILES.

The nature of series [1]: In vitro dissolution, USP Type II apparatus, simulated gastric fluid pH 1.2 without enzymes. In kind it is physicochemical. The note with it: itraconazole 100 mg, 900 ml simulated gastric fluid pH 1.2, 100 rpm, 37°C. As for the experimental part: The dissolution profile of pure itraconazole was compared to the dissolution profile itraconazole from the free-flowing powder formulation that was made by the process described in Example 3. The amount of free flowing powder formulation used in the dissolution studies was equivalent to amount of the formulation containing 100 mg of itraconazole. The amount of pure itraconazole used as a control in the studies was also 100 mg. […] The analysis was performed using a USP Type II dissolution apparatus with the paddle speed and temperature maintained at 100 rpm and 37±0.5° C. Three ml aliquots were removed at 10, 20, 30, 45 and 60 minute intervals. Subsequently, the amount of itraconazole in each of the aliquots was determined by using an HP Agilent® 1100 series HPLC system (Agilent Technologies, Inc., Santa Clara, Calif.). The mobile phase solution used in the HPLC system consisted of 65% acetonitrile and 35% 10 mM potassium dihydrogen phosphate. The solution was pumped through a Phenomenex® Luna 5 μm C-18 (dimension: 150 mm×4.6 mm) column (Phenomenex Corp., Torrance Calif.) at a flow rate of 1.3 ml/min. Itraconazole was detected at a wavelength of 263 nm. […] Subsequently, the amount of itraconazole in each of the aliquots was determined by using an HP Agilent® 1100 series HPLC system (Agilent Technologies, Inc., Santa Clara, Calif.). […] Itraconazole was detected at a wavelength of 263 nm. […]

Series [2] can be described thus: In vivo pharmacokinetic analysis after oral administration to jugular vein-cannulated rats. The conditions noted are these: fenofibrate 145 mg/70 kg, plasma fenofibric acid. As for the experimental part: The study was performed on jugular vein-cannulated rats weighing from 200 to 250 gm (n=4). […] Blood samples were collected at various time intervals over a 48 hour period after administration. The samples were collected into heparinized tubes through the jugular vein cannulation, centrifuged at 5000 rpm for 5 minutes. Each 50 μl plasma sample was treated with 10 μl of 50% methanol and 10 μl of an internal standard (Indomethacin), and then mixed by vortexing for 30 seconds. To that mixture, 200 μl of acetonitrile was added, followed by one minute of vortexing, centrifugation at 14,000 rpm for five minutes. […] Indomethacin was used as an internal standard for the LCMS analyis. Standard non-compartmental pharmacokinetic parameters were calculated. Briefly, noncompartmental pharmacokinetic analysis is dependent on estimation of total drug exposure. Total drug exposure is most often estimated by area under the curve (AUC) using the trapezoidal rule (numerical integration) method. Due to the dependence on the length of ‘x’ in the trapezoidal rule, the area estimation is dependent on the blood/plasma sampling schedule. That is, the closer time points are, the closer the trapezoids reflect the actual shape of the concentration-time curve.

`CCC(C)n1ncn(-c2ccc(N3CCN(c4ccc(OCC5COC(Cn6cncn6)(c6ccc(Cl)cc6Cl)O5)cc4)CC3)cc2)c1=O` (centres unmarked) [pure drug, itraconazole]: in series [1], the “drug release in 10 min” value is “less than 1%”. In addition, in series [2], the AUMC0-t came to 436.7 µg·h/mL, the CL is listed as 0.07 L/h, the Cmax (commonly the highest concentration seen after dosing) was found to be 7200 ng/mL and the “MRT (mean residence time)” value came to 9.15 h. In addition, in series [2], the t1/2 was determined as 7.18 h and the tmax was 2.5 h. In series [2] (over 48 hours), the “AUC0-t (AUC0-48)” value amounted to 51 µg·h/mL.
